Test system: skin at abdominal treatment sites
Assay: Clinical detection of freeze events during abdominal CoolSculpting cooling treatment after pre-treatment with cryoprotectant and mechanical stimulation
Format: in vivo, human
Conditions: patients, 14 total cycles at −15° C. applicator set point, 60 minute cycle, 3 cc topical, brushed for 2 minutes before cooling
Text: This section describes an example of the clinical use of pre-treating the skin of a patient at a treatment site with mechanical stimulation in the presence of topically applied cryoprotectant prior to applying cooling treatment for affecting subcutaneous lipid-rich cells. Additional embodiments of the present technology may be practiced with features similar to or different than those described with respect to this example. Among other features of the present technology, this example illustrates that mechanical stimulation in the presence of cryoprotectant prior to cooling treatment may have utility in the prevention of freezing events or damage when cooling subcutaneous lipid-rich tissue for aesthetic or health-related reasons. Thirteen patients scheduled for abdominoplasty where offered to undergo a CoolSculpting® treatment on abdominal treatment sites. Each patient underwent two CoolSculpting® treatment sessions having a 60 minute cycle time and a −15° C. applicator temperature set point. The vacuum was set at 60 per typical recommended settings and a standard CoolSculpting® gel pad and liner were used per instructions. Six patients were assigned to a control group and had no pre-treatment performed prior to the CoolSculpting® treatment. […] Freeze events were detected using a freeze detection algorithm such as that described in U.S. Pat. No. 8,285,390.

In the case of `CC(O)CO` (centres unmarked) [100% PG, propylene glycol], the “Probability of Freeze Event” value was 0% and the “Freeze Events” value (freeze detection algorithm) was 0.

From patent US11819257B2, “Compositions, treatment systems and methods for improved cooling of lipid-rich tissue” (Zeltiq Aesthetics, Inc., priority 2014, dated 2023)
